Reference: patent US9920074B2 (ACEA BIOSCIENCES INC., priority 2013, dated 2018)

How the values were obtained:
Type in all cases: cell-based
[1] = target: T1, Btk (Tyr223) phosphorylation in Ramos cells (Homo sapiens, UniProt Q06187); test: Western blotting assay for Btk (Example 73); details: 45 min, 6 μg/mL anti-IgM, read-out: Btk Inhibition
T1 construct: endogenous in cells; host or cells: Ramos cells (ATCC)
Method: (§1) All cell lines were obtained from the American Type Culture Collection and were maintained at 37° C. with 5% CO2. Ramos cell line was maintained in media supplemented with 10% fetal bovine serum, penicillin (100 units/mL) and streptomycin (100 μg/mL). NK-92 cell line was maintained in media supplemented with 10% fetal bovine serum and 10% horse serum, penicillin (100 units/mL) and streptomycin (100 μg/mL), IL-2 10 ng/mL. Goat F(ab′)2 Anti-Human IgM-UNLB was obtained from SouthernBiotech. IL-2 was obtained from Peprotech.
Ramos cells were treated with compounds at indicated doses for 45 min at room temperature, followed by stimulation of 6 μg/mL of anti-IgM for 30 min, and then lysed. Western blots were performed on the cell lysate using Phospho-Btk (Tyr223), Phospho-Btk (Tyr551), Btk, Phospho-PLCγ2 (Tyr1217), PLCγ2, Phospho-p44/42 MAPK (Erk1/2) (Thr202/Tyr204) and p44/42 MAPK (Erk1/2) antibodies (Cell Signaling Technology). The density of blotting band was acquired using ImageJ software, and the IC50 of Btk (Tyr223) phosphorylation was fitted using a non-linear regression model by GraphPad Prism.

[2] = target: T2, free Btk protein from Ramos cells (Homo sapiens, UniProt Q06187); test: Btk target site occupancy ELISA assay; details: 1 h, ELISA, read-out: Btk Occupancy Assay (IC50)
T2 construct: endogenous in cells; host or cells: Ramos cells (ATCC)
T2 sequence (Q06187 whole entry): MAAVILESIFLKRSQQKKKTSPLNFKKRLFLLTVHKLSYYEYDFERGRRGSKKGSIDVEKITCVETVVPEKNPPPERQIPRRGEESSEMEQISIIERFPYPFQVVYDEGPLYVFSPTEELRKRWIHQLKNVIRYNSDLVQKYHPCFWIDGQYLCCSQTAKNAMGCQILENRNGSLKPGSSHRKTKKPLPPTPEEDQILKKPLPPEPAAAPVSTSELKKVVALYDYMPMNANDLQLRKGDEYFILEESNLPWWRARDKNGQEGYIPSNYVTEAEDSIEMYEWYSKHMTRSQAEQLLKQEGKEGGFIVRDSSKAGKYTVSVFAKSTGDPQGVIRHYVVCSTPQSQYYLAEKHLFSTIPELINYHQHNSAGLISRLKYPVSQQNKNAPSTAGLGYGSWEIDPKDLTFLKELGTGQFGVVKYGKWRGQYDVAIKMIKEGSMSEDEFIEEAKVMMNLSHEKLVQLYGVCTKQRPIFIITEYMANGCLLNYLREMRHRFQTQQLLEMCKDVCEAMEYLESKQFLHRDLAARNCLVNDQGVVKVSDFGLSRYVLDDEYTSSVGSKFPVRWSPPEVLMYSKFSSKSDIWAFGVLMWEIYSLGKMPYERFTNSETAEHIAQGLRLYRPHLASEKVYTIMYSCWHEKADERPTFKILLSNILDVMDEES
Method: (§2) Ramos cells were treated with Compound I-1 at indicated concentrations for 1 h, followed by stimulation with 6 μg/mL of IgM for 30 mm, and then lysed. Lysates were incubated with Compound I-21 (biotin labeled) at a final concentration of 1 μM in a PBS, 0.05% Tween-20, 1% BSA solution while shaking for 1 h at room temperature. Samples were transferred to a streptavidin-coated 96-well ELISA plate and mixed while shaking for 1 h at room temperature. The Btk antibody (BD 611116, 1:1000 dilution in PBS+0.05% Tween-20+0.5% BSA) was then applied and incubated for 1 h at room temperature. After wash, goat anti-mouse-HRP (Pierce 31432, 1:1000 dilution in PBS+0.05% Tween-20+0.5% BSA) was added and incubated for 1 h at room temperature. The ELISA was developed with addition of tetramethyl benzidine (TMB) followed by Stop Solution and read at OD 450 nm.
as §2, with “Compounds” for “Compound I-1”, “anti-IgM” for “IgM”, “diluted” for “dilution”, “tetramethylbenzidine” for “tetramethyl benzidine”

[3] = system: Stat5 phosphorylation in NK-92 cells; test: Western blotting assay for Stat5; details: NK92, 1 hour, IL-2 stimulation, read-out: Stat5 inhibition
Method: as §1
NK-92 cells were treated with compounds at the dosed indicated for 1 hour in incubator, followed by the IL-2 stimulation for 15 minutes. Cells were then collected and lysed to prepare the cellular extraction. Western blots were performed on cell lysate using Phospho-Jak3, Jak3, Phospho-Stat5, Stat5 antibodies (Cell Signaling Technology). The intensity of blotting band was acquired using Image Lab (Bio-Rad) software, and the IC50 of target was generated with GraphPad Prism.

T1 sequence (Q06187 whole entry): as above

Compound	IC50 [1] [nM]	IC50 [2] [nM]	IC50 [3] [nM]
C=CC(=O)Nc1cccc(Oc2nc(Nc3ccc4c(c3)CCN4CCOC)nc3[nH]ccc23)c1 [Compound I-36a, N-(3-(2-(1-(2-methoxyethyl)indolin-5-ylamino)-7H-pyrrolo[2,3-d]pyrimidin-4-yloxy)phenyl)acrylamide]	10 to 100		200 to 400
C=CC(=O)Nc1cccc(Oc2nc(Nc3cc(F)c(OCCOC)c(F)c3)nc3[nH]ccc23)c1 [Compound I-37a, N-(3-(2-(3,5-difluoro-4-(2-methoxyethoxy)phenylamino)-7H-pyrrolo[2,3-d]pyrimidin-4-yloxy)phenyl)acrylamide]	10 to 100		≥ 400
C=CC(=O)Nc1cccc(Oc2nc(Nc3ccc(N(CCC)CCOC)cc3)ncc2OC)c1 [Compound I-38a, N-(3-(5-methoxy-2-(4-((2-methoxyethyl)(propyl)amino)phenylamino)pyrimidin-4-yloxy)phenyl)acrylamide]	10 to 100		≥ 400
C=CCN(CCOC)c1ccc(Nc2ncc(OC)c(Oc3cccc(NC(=O)C=C)c3)n2)cc1 [Compound I-39a]	10 to 100		≥ 400
C=CC(=O)Nc1cccc(Oc2nc(Nc3ccc(N(C)CCOC)cc3)nc3[nH]ccc23)c1 [Compound I-41a, N-(3-(2-(4-((2-methoxyethyl)(methyl)amino)phenylamino)-7H-pyrrolo[2,3-d]pyrimidin-4-yloxy)phenyl)acrylamide]	10 to 100		200 to 400
C=CC(=O)Nc1cccc(Oc2nc(Nc3ccc4c(ccn4CCOC)c3)ncc2OC)c1 [Compound I-45a, N-(3-(5-methoxy-2-(1-(2-methoxyethyl)-1H-indol-5-ylamino)pyrimidin-4-yloxy)phenyl)acrylamide]	10 to 100		200 to 400
C=CC(=O)Nc1cccc(Oc2nc(Nc3ccc(N(C)CCOC)nc3)nc3[nH]ccc23)c1 [Compound I-46a, N-(3-(2-(6-((2-methoxyethyl)(methyl)amino)pyridin-3-ylamino)-7H-pyrrolo[2,3-d]pyrimidin-4-yloxy)phenyl)acrylamide]	10 to 100		≥ 400
C=CC(=O)Nc1cccc(Oc2nc(Nc3ccc4c(c3)CN(CCOC)C4)ncc2OC)c1 [Compound I-50a, N-(3-(5-methoxy-2-(2-(2-methoxyethyl)isoindolin-5-ylamino)pyrimidin-4-yloxy)phenyl)acrylamide]	10 to 100		≥ 400
C=CC(=O)Nc1cccc(Oc2nc(Nc3ccc(N(C)[C@H]4CCN(C(C)=O)C4)cc3)ncc2OC)c1 [Compound I-58a, (S)—N-(3-(2-(4-((1-acetylpyrrolidin-3-yl)(methyl)amino)phenylamino)-5-methoxypyrimidin-4-yloxy)phenyl)acrylamide]	≤ 10	≤ 10	≥ 400

More lines, now with the values ahead:

IC50 [1] [nM]	IC50 [2] [nM]	IC50 [3] [nM]	Compound
≤ 10	≤ 10		C=CC(=O)Nc1cccc(Oc2nc(Nc3ccc(N[C@H]4CCN(CCF)C4)cc3)ncc2F)c1 [Compound I-20, (S)—N-(3-(5-fluoro-2-(4-(1-(2-fluoroethyl)pyrrolidin-3-ylamino)phenylamino)pyrimidin-4-yloxy)phenyl)acrylamide]
≤ 10		≥ 400	C=CC(=O)Nc1cccc(Oc2nc(Nc3ccc(N[C@H]4CCN(CCOC)C4)cc3)nc3[nH]ccc23)c1 [Compound I-40a, (S)—N-(3-(2-(4-(1-(2-methoxyethyl)pyrrolidin-3-ylamino)phenylamino)-7H-pyrrolo[2,3-d]pyrimidin-4-yloxy)phenyl)acrylamide]
≤ 10		≥ 400	C=CC(=O)Nc1cccc(Oc2nc(Nc3ccc(N(C)[C@H]4CCN(CCOC)C4)cc3)ncc2OC)c1 [Compound I-42a, (S)—N-(3-(5-methoxy-2-(4-((1-(2-methoxyethyl)pyrrolidin-3-yl)(methyl)amino)phenylamino)pyrimidin-4-yloxy)phenyl)acrylamide]
≤ 10		200 to 400	C=CC(=O)Nc1cccc(Oc2nc(Nc3ccc4c(ccn4CCF)c3)ncc2OC)c1 [Compound I-43a, N-(3-(2-(1-(2-fluoroethyl)-1H-indol-5-ylamino)-5-methoxypyrimidin-4-yloxy)phenyl)acrylamide]
≤ 10		200 to 400	C=CC(=O)Nc1cccc(Oc2nc(Nc3ccc(OCCS(C)(=O)=O)cc3)ncc2OC)c1 [Compound I-44a, N-(3-(5-methoxy-2-(4-(2-(methylsulfonyl)ethoxy)phenylamino)pyrimidin-4-yloxy)phenyl)acrylamide]
≤ 10		200 to 400	C=CC(=O)Nc1cccc(Oc2nc(Nc3ccc(N4CCN(CCOC)CC4)cc3)nc3[nH]ccc23)c1 [Compound I-47a, N-(3-(2-(4-(4-(2-methoxyethyl)piperazin-1-yl)phenylamino)-7H-pyrrolo[2,3-d]pyrimidin-4-yloxy)phenyl)acrylamide]
≤ 10		200 to 400	C=CC(=O)Nc1cccc(Oc2nc(Nc3ccc(N4CCN(CCOC)CC4)c(F)c3)nc3[nH]ccc23)c1 [Compound I-48a, N-(3-(2-(3-fluoro-4-(4-(2-methoxyethyl)piperazin-1-yl)phenylamino)-7H-pyrrolo[2,3-d]pyrimidin-4-yloxy)phenyl)acrylamide]
≤ 10		≥ 400	C=CC(=O)Nc1cccc(Oc2nc(Nc3ccc(N(C)[C@H]4CCN(CCOC)C4)cc3)nc3[nH]ccc23)c1 [Compound I-49a, (S)—N-(3-(2-(4-((1-(2-methoxyethyl)pyrrolidin-3-yl)(methyl)amino)phenylamino)-7H-pyrrolo[2,3-d]pyrimidin-4-yloxy)phenyl)acrylamide]
≤ 10		≥ 400	C=CC(=O)Nc1cccc(Oc2nc(Nc3ccc(N(CC)[C@H]4CCN(CCOC)C4)cc3)ncc2OC)c1 [Compound I-51a, (S)—N-(3-(2-(4-(ethyl(1-(2-methoxyethyl)pyrrolidin-3-yl)amino)phenylamino)-5-methoxypyrimidin-4-yloxy)phenyl)acrylamide]
≤ 10		≥ 400	C=CC(=O)Nc1cccc(Oc2nc(Nc3ccc4c(c3)CC(=O)N4CCOC)ncc2OC)c1 [Compound I-52a, N-(3-(5-methoxy-2-(1-(2-methoxyethyl)-2-oxoindolin-5-ylamino)pyrimidin-4-yloxy)phenyl)acrylamide]
≤ 10		≥ 400	C=CC(=O)Nc1cccc(Oc2nc(Nc3ccc(N(C4CC4)[C@H]4CCN(CCOC)C4)cc3)ncc2OC)c1 [Compound I-53a, (S)—N-(3-(2-(4-(cyclopropyl(1-(2-methoxyethyl)pyrrolidin-3-yl)amino)phenylamino)-5-methoxypyrimidin-4-yloxy)phenyl)acrylamide]
≤ 10		≥ 400	C=CC(=O)Nc1cccc(Oc2nc(Nc3ccc(N4CCN(CCS(C)(=O)=O)CC4)cc3)ncc2OC)c1 [Compound I-54a, N-(3-(5-methoxy-2-(4-(4-(2-(methylsulfonyl)ethyl)piperazin-1-yl)phenylamino)pyrimidin-4-yloxy)phenyl)acrylamide]
≤ 10		200 to 400	C=CC(=O)Nc1cccc(Oc2nc(Nc3ccc4c(c3)CCN4C(C)=O)ncc2OC)c1 [Compound I-56a, N-(3-(2-(1-acetylindolin-5-ylamino)-5-methoxypyrimidin-4-yloxy)phenyl)acrylamide]
≤ 10		200 to 400	C=CC(=O)Nc1cccc(Oc2nc(Nc3ccc(N(C)[C@H]4CCN(CCS(C)(=O)=O)C4)cc3)ncc2OC)c1 [Compound I-57a, (S)—N-(3-(5-methoxy-2-(4-(methyl(1-(2-(methylsulfonyl)ethyl)pyrrolidin-3-yl)amino)phenylamino)pyrimidin-4-yloxy)phenyl)acrylamide]
